Read-outs that look alike come from different tables or passages of the source.
Legend:
[1] = tested on: heart slice cultures
Experimental: Additional analysis was performed on 3 slices, at 30 days after plating using a confocal laser scanning microscope (Zeiss), following incubation with 5 μM fluo-4 AM (Invitrogen, France) for 20 min at 37° C.
To monitor spontaneous Ca2+ spiking, heart slice cultures, were loaded with 5 μmol/L Fluo-4 AM ester and the temporal change of fluorescent intensity was measured at physiological temperature (37° C.).

[2] = tested on: heart slice cultures; conditions: 10, 100 nmol/L and 1 μmol/L, 30 days after plating, 37° C., monitored 3 min after stimulation
Experimental: (§1) Cultures were prepared from ventricular sections of 3 day-old rats (Charles River, France) or 8 weeks-old human embyros. The hearts were removed and placed in Phosphate-Buffered Saline (PBS), atria were removed and the ventricles sliced at 1 mm-thickness using a rodent heart matrix (Harvard Apparatus). The heart slices were immediately transferred to a Millicell-CM 0.4 μm membrane (Millipore, France) and the insert placed into a 6 well-plate containing 1 ml of medium.
(§2) The culture medium consisted of DMEM/F12 medium supplemented with 20% Knockout Serum Replacement, 1% non essential amino acids, 2 mM L-glutamine, 0.1 mM β-mercaptoethanol, and 1% PS (Invitrogen, France). Heart slices were maintained for 30-80 days at 37° C. in a humidified atmosphere containing 5% CO2.
(§3) Further functional characterization of the contractile function of ventricular slices was carried out on 24 slices, at 30 days after plating, using a stereomicroscope and a temperature-controlled stage set at 37° C., following incubation with 10, 100nM and 1 μM of epinephrine (Sigma, France). Beating frequency was monitored 3 min after pharmacological stimulation.

[3] = tested on: human heart slices; conditions: slices from 8 week-old human embryo
Experimental: as §1, §2, §3

CNC[C@H](O)c1ccc(O)c(O)c1 [epinephrine]
Ca2+-transient amplitude and frequency ([1]; heart slice loaded with fluo-4, confocal analysis): dose-dependent increase in Ca2+-transient amplitude and frequency
concentration giving maximal response ([1]; tested 10, 100 nmol/L and 1 μmol/L): 1 µmol/L
spontaneous beating frequencies of heart slice [2]: increased the spontaneous beating frequencies of heart slice in dose-response manner
spontaneous beating frequencies of heart slice ([2]; listed as Epinepfrine): increased the frequencies of spontaneous beating in dose-response manner
spontaneous beating frequency of human heart slices [3]: increased spontaneous beating frequency of both human heart slices, in a dose-dependent manner
spontaneous beating frequency of human heart slices ([3]; listed as Epinephrine): increases the frequencies of beating in human heart slices

From patent US20100203575A1, “In Vitro Beating Heart Model” (INSERM (Institut National de la Sante et de la Recherche …, priority 2007, published 2010)
